Experimental data from patent US20230165836A1, “ALPHA-2 ADRENERGIC RECEPTOR AGONISTS FOR THE TREATMENT OF CANCER” (UNIVERSITÉ CATHOLIQUE DE LOUVAIN, priority 2020, published 2023).
Entries after “also recorded” stand apart in the source; their conditions may differ.

What was measured:
CT26 colon carcinomas = experiment: CT26 colon carcinoma model, daily i.p. treatment, tumor volume; assay type: in vivo, BALB/c mice; conditions: CT26
Experimental: Mice received a daily intra-peritoneal injection of guanabenz (5 mg/kg) or vehicle (PBS) from the day of randomization (and the day of ACT when applicable) until the day of sacrifice. For the co-administration of adrenergic receptor agonist and antagonist, BALB/c mice bearing CT26 colon carcinomas received daily injections of vehicle control, guanabenz (5 mg/kg, i.p.), or guanabenz (5 mg/kg, i.p.) plus yohimbine (10 mg/kg, i.p.), when the tumor size was around 50 mm^3, until the day of sacrifice.
[…] mice were injected subcutaneously with 2×10^6 CT26 colon tumor cells at an age of 6 to 8 weeks. […] For evaluation of yohimbine on the effect of clonidine and guanabenz, the mice were randomized into different groups when tumors size arrived around 100 mm^3 and received daily injections of guanabenz (5 mg/kg, i.p.), yohimbine (10 mg/kg), a mix of guanabenz (5 mg/kg, i.p.) and yohimbine (10 mg/kg, i.p.), clonidine (5 mg/kg, i.p.), a mix of clonidine (5 mg/kg, i.p.) and yohimbine (10 mg/kg, i.p.) or vehicle control. Tumor size was measured every 2 days and mice were sacrificed when the tumor in control group reached 1,000 mm^3.

[1] = system: immune-resistant autochthonous melanoma tumors (TiRP); experiment: TiRP melanoma with adoptive cell transfer (ACT) of P1A-specific CD8+T cells; assay type: in vivo, TiRP mice
Description: TiRP mice have been created by crossing Ink4a/Are^flox/flox mice with mice carrying a transgenic construct controlled by the tyrosinase promoter and driving the expression of H-Ras ^12V and Trapl a which encodes a MAGE-type tumor antigen P1A; the promoter is separated from the coding region by a stop cassette made of a floxed self-deleting CreER (Huijbers et al., 2006, Cancer Res 66, 3278-3286). Those mice were backcrossed to a B10.D2 background and bred to homozygosity. TCRP1A mice heterozygous for the H-2Ld/P1A35-43-specific TCR transgene were kept on the B10.D2;Rag1^−/− background (Shanker et al., 2004, J Immunol 172, 5069-5077). BALB/c mice were used in tumor transplantation experiments. TiRP-derived T429.11 transplanted melanoma model: T429.11 clone was derived from an induced Amela TiRP tumor referred to as T429. It was cloned from the T429 induced melanoma primary tumor line. Two million of T429.11 tumor cells were injected subcutaneously into recipient mice for tumor establishment (Zhu et al., 2017, Nat Commun. 10; 8(1):1404). Adra2a tm1Bkk mice (Strain Name: B6.129-Adra2a tm1Bkk /J, # 004367) were obtained from Jackson Laboratory (Bar Harbor, Me., USA).
(§1) A fresh solution of 40H-Tamoxifen was prepared by dissolving 40H-Tamoxifen (Imaginechem®) in 100% ethanol and mineral oil (ratio 1:9) followed by 30 min sonication, and injected subcutaneously (2 mg/200 uL per mouse) in the neck area of gender-matched 7 weeks old TiRP mice. Tumor appearance was monitored daily and tumors were measured three times/week. Tumor volume (in mm^3) was calculated by the following formula: Volume=width^2×length/2.
For the adoptive cell transfer (ACT), P1A-specific (TCRP1A) CD8+T cells were isolated from spleens and lymph nodes of TCRP1A mice as described hereinabove, and stimulated in vitro by co-culture with irradiated (10,000 rads) L1210.P1A.B7-1 cells (Gajewski et al., 1995, J Immunol 154, 5637-5648) at 1:2 ratio (0.5×10^5 CD8+T cells and 10^5 L1210.P1A.B7-1 cells per well in 48-well plates) in IMDM (GIBCO®) containing 10% fetal bovine serum supplemented with L-arginine (0.55 mM, Merck®), L-asparagine (0.24 mM, Merck®), glutamine (1.5 mM, Merck®), beta-mercaptoethanol (50 μM, Sigma Aldrich®), 50 U mL^−1 penicillin and […] mL^−1 streptomycin (Life Technologies®). Four days later, TCRP1A CD8+T cells were purified on a Lymphoprep gradient (StemCell®) and 10^7 living cells were injected intravenously in 200 μL PBS in TiRP-tumor bearing mice on the day of randomization.
TiRP-tumor bearing mice received adoptive cell transfer (ACT) of 10^7 P1A-specific activated CD8+T cells and daily injections of vehicle control, clonidine (5 mg/kg, i.p.), or clonidine (5 mg/kg, i.p.) combined with phentolamine (5 mg/kg, i.p.), when the tumor size was around 500 mm^3, until the day of sacrifice. Tumor size was monitored every 2 days. Mice were sacrificed when the tumor in control group reached around 2,000 mm^3.
TiRP-tumor bearing mice received adoptive cell transfer (ACT) of 10^7 of P1A-specific activated CD8+T cells. Daily injections of 5 mg/kg i.p. of romifidine or clonidine were thus administered from the day of the ACT, when the tumor size was around 500 mm^3, until the day of sacrifice. As shown on FIGS. 5A-B, following romifidine or clonidine administration, tumor infiltration of CD8+T cells was increased. […]

B16F1 melanoma [2] = experiment: B16F1 melanoma in immune competent mice; assay type: in vivo; conditions: B16F1 in immune competent C57BL/6 mice; 5 mg/kg, i.p.; monotherapy
Experimental: (§2) FIGS. 10A-B is a set of curves showing the tumor growth of B16F1 melanoma in C57BL/6J (FIG. 10A) or immunodeficient NSG mice (FIG. 10B) treated with PBS (Control, curve 1) or clonidine (5 mg/kg, i.p., curve 2).
(§3) FIGS. 11A-B is a set of curves showing the tumor growth of B16F1 melanoma in C57BL/6J (FIG. 11A) or NSG mice (FIG. 11B) treated with PBS (Control, curve 1) or guanfacine (5 mg/kg, i.p., curve 2).

B16F1 melanoma [3] = experiment: B16F1 melanoma in immune deficient mice; assay type: in vivo; conditions: B16F1 in immune deficient NSG mice; 5 mg/kg, i.p.
Experimental: as §2, §3

TiRP melanoma = TiRP melanoma model, monotherapy; assay type: in vivo; conditions: TiRP+/+ mice; 5 mg/kg, i.p. daily from tumor size around 250 mm^3
Experimental: FIGS. 14A-B is a set of curves showing the tumor growth (melanoma) in TiRP+/+ mice that have received daily injections of guanfacine (5 mg/kg, i.p. triangles; FIG. 14A), clonidine (5 mg/kg, i.p., circles; FIG. 14B), or control (PBS, i.p., squares), when the tumor size was around 250 mm^3 until sacrifice.
TiRP mice have been created by crossing Ink4a/Are^flox/flox mice with mice carrying a transgenic construct controlled by the tyrosinase promoter and driving the expression of H-Ras ^12V and Trapl a which encodes a MAGE-type tumor antigen P1A; the promoter is separated from the coding region by a stop cassette made of a floxed self-deleting CreER (Huijbers et al., 2006, Cancer Res 66, 3278-3286). Those mice were backcrossed to a B10.D2 background and bred to homozygosity. TCRP1A mice heterozygous for the H-2Ld/P1A35-43-specific TCR transgene were kept on the B10.D2;Rag1^−/− background (Shanker et al., 2004, J Immunol 172, 5069-5077). […]
as §1

SMILES: Cc1ccc(N(CC2=NCCN2)c2cccc(O)c2)cc1 [Phentolamine]
- effect of co-administered antagonist on the inhibition of tumor growth by clonidine (CT26 colon carcinomas; clonidine 5 mg/kg i.p. plus phentolamine 5 mg/kg, propranolol 5 mg/kg or yohimbine 10 mg/kg i.p. daily): attenuated the inhibitory effect
- effect of co-administered antagonist on the inhibition of tumor growth by guanabenz (CT26 colon carcinomas; guanabenz 5 mg/kg i.p. plus phentolamine 5 mg/kg or yohimbine 10 mg/kg i.p. daily): attenuated the inhibitory effect
- effect of phentolamine on the inhibition of TiRP tumor growth by clonidine ([1]; ACT, clonidine 5 mg/kg i.p. plus phentolamine 5 mg/kg i.p. daily): attenuated the inhibitory effect of clonidine on TiRP tumor growth

SMILES: N=C(N)NC(=O)Cc1c(Cl)cccc1Cl [guanfacine]
- tumor growth, combined with ACT ([1]; TiRP mice, ACT of 10^7 P1A-specific CD8+T cells, 5 mg/kg i.p. daily): inhibited the tumor growth
- tumor growth (B16F1 melanoma [2]): inhibited tumor growth
- tumor growth (B16F1 melanoma [3]): No tumor inhibition was found
- tumor volume, monotherapy (TiRP melanoma): efficient in decreasing the tumor volume

SMILES: Fc1cccc(Br)c1NC1=NCCN1 [romifidine]
- tumor infiltration of CD8+T cells (%CD8+T cells among total CD45+T cells) ([1]; TiRP mice with ACT, 5 mg/kg i.p. daily from day of ACT, tumor size around 500 mm^3, 5 mg/kg): increase of tumor infiltration of CD8+T cells; also recorded: increased
